The values that follow are results of earlier work, collected in patent US4536335A, “Carbapenem antibiotics” (Bristol-Myers Company, priority 1983, dated 1985).

The data set concerns various Pseudomonas species. The note with it: prior art description; cited from earlier work.

`C[C@@H](O)[C@H]1C(=O)N2C(C(=O)O)=C(SCCN)C[C@H]12` [Thienamycin, thienamycin]: the “activity against various Pseudomonas species” value is given as “notable activity”.
